Values joined by “and” are separate entries in the source; they are usually repeats but may differ in a detail not shown here. Equal values may be shown once.
Details: Liquid, Vibrating tube method

FC(C(F)(F)F)C(F)(F)F [1,1,1,2,3,3,3-heptafluoropropane]
Details | mass density
323.15 K, 24369 kPa | 1441.6 kg/m3
323.15 K, 24448 kPa | 1441.9 kg/m3
323.15 K, 24476 kPa | 1442 kg/m3
323.15 K, 24507 kPa | 1442.1 kg/m3
323.15 K, 24535 kPa | 1442.3 kg/m3
323.15 K, 24630 kPa | 1442.7 kg/m3
323.15 K, 25178 kPa | 1445.1 kg/m3
323.15 K, 25221 kPa | 1445.2 kg/m3
323.15 K, 25254 kPa | 1445.3 kg/m3
323.15 K, 25279 kPa | 1445.5 kg/m3
323.15 K, 25317 kPa | 1445.6 kg/m3
323.15 K, 25347 kPa | 1445.8 kg/m3
323.15 K, 25380 kPa | 1445.9 kg/m3
323.15 K, 25479 kPa | 1446.3 kg/m3
323.15 K, 25518 kPa | 1446.5 kg/m3
323.15 K, 25548 kPa | 1446.5 kg/m3
323.15 K, 25582 kPa | 1446.8 kg/m3
323.15 K, 25619 kPa | 1447 kg/m3
323.15 K, 25648 kPa | 1447.1 kg/m3
323.15 K, 25678 kPa | 1447.1 kg/m3
323.15 K, 25713 kPa | 1447.3 kg/m3
323.15 K, 25743 kPa | 1447.4 kg/m3
323.15 K, 25772 kPa | 1447.5 kg/m3
323.15 K, 25810 kPa | 1447.7 kg/m3
323.15 K, 25835 kPa | 1447.8 kg/m3
323.15 K, 25868 kPa | 1447.9 kg/m3
323.15 K, 25896 kPa | 1448 kg/m3
323.15 K, 25923 kPa | 1448.1 kg/m3
323.15 K, 26006 kPa | 1448.7 kg/m3
323.15 K, 26035 kPa | 1448.7 kg/m3
323.15 K, 26099 kPa | 1449 kg/m3
323.15 K, 26134 kPa | 1449.1 kg/m3
323.15 K, 26161 kPa | 1449.1 kg/m3
323.15 K, 26196 kPa | 1449.4 kg/m3
323.15 K, 26255 kPa | 1449.6 kg/m3
323.15 K, 26288 kPa | 1449.7 kg/m3
323.15 K, 27476 kPa | 1454.6 kg/m3
323.15 K, 27515 kPa | 1454.7 kg/m3
323.15 K, 27549 kPa | 1454.9 kg/m3
323.15 K, 27579 kPa | 1455 kg/m3
323.15 K, 27618 kPa | 1455.2 kg/m3
323.15 K, 27658 kPa | 1455.4 kg/m3
323.15 K, 27685 kPa | 1455.4 kg/m3
323.15 K, 27721 kPa | 1455.7 kg/m3
323.15 K, 27748 kPa | 1455.7 kg/m3
323.15 K, 27786 kPa | 1455.9 kg/m3
323.15 K, 27821 kPa | 1456 kg/m3
323.15 K, 27852 kPa | 1456 kg/m3
323.15 K, 27887 kPa | 1456.3 kg/m3
323.15 K, 27918 kPa | 1456.3 kg/m3
323.15 K, 27943 kPa | 1456.5 kg/m3
323.15 K, 27982 kPa | 1456.6 kg/m3
323.15 K, 28017 kPa | 1456.8 kg/m3
323.15 K, 28049 kPa | 1456.7 kg/m3
323.15 K, 28080 kPa | 1457 kg/m3
323.15 K, 28115 kPa | 1457.1 kg/m3
323.15 K, 28148 kPa | 1457.2 kg/m3
323.15 K, 28180 kPa | 1457.4 kg/m3
323.15 K, 28217 kPa | 1457.6 kg/m3
323.15 K, 28245 kPa | 1457.7 kg/m3
323.15 K, 28276 kPa | 1457.9 kg/m3
323.15 K, 28309 kPa | 1457.9 kg/m3
323.15 K, 28337 kPa | 1458 kg/m3
323.15 K, 28375 kPa | 1458.1 kg/m3
323.15 K, 28403 kPa | 1458.3 kg/m3
323.15 K, 28445 kPa | 1458.5 kg/m3
323.15 K, 28474 kPa | 1458.6 kg/m3
323.15 K, 28506 kPa | 1458.7 kg/m3
323.15 K, 28534 kPa | 1458.7 kg/m3
323.15 K, 28571 kPa | 1459 kg/m3
323.15 K, 28603 kPa | 1459.1 kg/m3
323.15 K, 28633 kPa | 1459.2 kg/m3
323.15 K, 28660 kPa | 1459.4 kg/m3
323.15 K, 28691 kPa | 1459.5 kg/m3
323.15 K, 28718 kPa | 1459.6 kg/m3
323.15 K, 28763 kPa | 1459.8 kg/m3
323.15 K, 28799 kPa | 1459.9 kg/m3
323.15 K, 28837 kPa | 1459.9 kg/m3
323.15 K, 28870 kPa | 1460.1 kg/m3
323.15 K, 28904 kPa | 1460.2 kg/m3
323.15 K, 28935 kPa | 1460.4 kg/m3
323.15 K, 28970 kPa | 1460.5 kg/m3
323.15 K, 28997 kPa | 1460.6 kg/m3
323.15 K, 29033 kPa | 1460.8 kg/m3
323.15 K, 29063 kPa | 1460.9 kg/m3
323.15 K, 29088 kPa | 1460.9 kg/m3
323.15 K, 29121 kPa | 1461.1 kg/m3
323.15 K, 29162 kPa | 1461.2 kg/m3
323.15 K, 29188 kPa | 1461.4 kg/m3
323.15 K, 29756 kPa | 1463.5 kg/m3
323.15 K, 29784 kPa | 1463.7 kg/m3
323.15 K, 29822 kPa | 1463.8 kg/m3
323.15 K, 29860 kPa | 1464 kg/m3
323.15 K, 29886 kPa | 1464 kg/m3
323.15 K, 29919 kPa | 1464.2 kg/m3
323.15 K, 29949 kPa | 1464.3 kg/m3
323.15 K, 30616 kPa | 1466.8 kg/m3
323.15 K, 30653 kPa | 1467 kg/m3
323.15 K, 30689 kPa | 1467.1 kg/m3
323.15 K, 30736 kPa | 1467.2 kg/m3
323.15 K, 30764 kPa | 1467.3 kg/m3
323.15 K, 30805 kPa | 1467.5 kg/m3
323.15 K, 30843 kPa | 1467.7 kg/m3
323.15 K, 30885 kPa | 1467.8 kg/m3
323.15 K, 32658 kPa | 1474.5 kg/m3
323.15 K, 32686 kPa | 1474.5 kg/m3
323.15 K, 34384 kPa | 1480.6 kg/m3
323.15 K, 34387 kPa | 1480.4 kg/m3 and 1480.6 kg/m3
323.16 K, 14143 kPa | 1389.6 kg/m3
323.16 K, 14163 kPa | 1389.5 kg/m3
323.16 K, 14186 kPa | 1389.6 kg/m3
323.16 K, 14200 kPa | 1389.8 kg/m3
323.16 K, 14366 kPa | 1390.8 kg/m3
323.16 K, 14386 kPa | 1390.8 kg/m3
323.16 K, 14409 kPa | 1390.9 kg/m3
323.16 K, 14427 kPa | 1391.1 kg/m3
323.16 K, 14450 kPa | 1391.3 kg/m3
323.16 K, 14470 kPa | 1391.5 kg/m3
323.16 K, 14492 kPa | 1391.6 kg/m3
323.16 K, 14509 kPa | 1391.5 kg/m3
323.16 K, 16696 kPa | 1404.2 kg/m3
323.16 K, 16719 kPa | 1404.2 kg/m3
323.16 K, 16735 kPa | 1404.5 kg/m3
323.16 K, 16783 kPa | 1404.5 kg/m3
323.16 K, 29984 kPa | 1464.4 kg/m3
323.16 K, 30010 kPa | 1464.6 kg/m3
323.16 K, 30040 kPa | 1464.7 kg/m3
323.16 K, 30071 kPa | 1464.8 kg/m3
323.16 K, 30102 kPa | 1464.9 kg/m3
323.16 K, 30132 kPa | 1465 kg/m3
323.16 K, 30163 kPa | 1465.1 kg/m3
323.16 K, 30194 kPa | 1465.2 kg/m3
323.16 K, 30221 kPa | 1465.4 kg/m3
323.16 K, 30252 kPa | 1465.5 kg/m3
323.16 K, 30280 kPa | 1465.6 kg/m3
323.16 K, 30311 kPa | 1465.6 kg/m3
323.16 K, 30340 kPa | 1465.8 kg/m3
323.16 K, 30380 kPa | 1466 kg/m3
323.16 K, 30414 kPa | 1466.1 kg/m3
323.16 K, 30444 kPa | 1466.3 kg/m3
323.16 K, 30470 kPa | 1466.4 kg/m3
323.16 K, 30505 kPa | 1466.5 kg/m3
323.16 K, 30532 kPa | 1466.6 kg/m3
323.16 K, 30554 kPa | 1466.6 kg/m3
323.16 K, 30581 kPa | 1466.8 kg/m3
333.13 K, 1640 kPa | 1225.8 kg/m3
333.13 K, 1661 kPa | 1226.3 kg/m3
333.13 K, 1691 kPa | 1226.6 kg/m3
333.13 K, 1709 kPa | 1227.1 kg/m3
333.13 K, 1736 kPa | 1227.6 kg/m3
333.13 K, 1764 kPa | 1228 kg/m3
333.13 K, 1789 kPa | 1228.4 kg/m3
333.13 K, 1815 kPa | 1229 kg/m3
333.13 K, 1839 kPa | 1229.7 kg/m3
333.13 K, 1866 kPa | 1229.9 kg/m3
333.13 K, 1898 kPa | 1230.4 kg/m3
333.13 K, 1924 kPa | 1231 kg/m3
333.13 K, 1944 kPa | 1231.2 kg/m3
333.13 K, 1976 kPa | 1231.8 kg/m3
333.13 K, 2004 kPa | 1232.3 kg/m3
333.13 K, 2034 kPa | 1232.9 kg/m3
333.13 K, 2056 kPa | 1233.2 kg/m3
333.13 K, 2088 kPa | 1233.7 kg/m3
333.13 K, 2113 kPa | 1234.2 kg/m3
333.13 K, 2138 kPa | 1234.6 kg/m3
333.13 K, 2357 kPa | 1238.4 kg/m3
333.13 K, 2604 kPa | 1242.4 kg/m3
333.13 K, 2744 kPa | 1244.5 kg/m3
333.13 K, 2770 kPa | 1244.9 kg/m3
333.13 K, 2793 kPa | 1245.1 kg/m3
333.13 K, 2828 kPa | 1245.9 kg/m3
333.13 K, 2863 kPa | 1246.2 kg/m3
333.13 K, 2890 kPa | 1246.6 kg/m3
333.13 K, 2915 kPa | 1247.1 kg/m3
333.13 K, 2950 kPa | 1247.6 kg/m3
333.13 K, 3233 kPa | 1251.7 kg/m3
333.13 K, 3261 kPa | 1252.3 kg/m3
333.13 K, 3298 kPa | 1252.9 kg/m3
333.13 K, 3326 kPa | 1253.1 kg/m3
333.13 K, 3358 kPa | 1253.7 kg/m3
333.13 K, 3391 kPa | 1254.2 kg/m3
333.13 K, 3420 kPa | 1254.6 kg/m3
333.13 K, 3448 kPa | 1255 kg/m3
333.13 K, 3488 kPa | 1255.4 kg/m3
333.13 K, 3517 kPa | 1256 kg/m3
333.13 K, 3542 kPa | 1256.2 kg/m3
333.13 K, 3575 kPa | 1256.7 kg/m3
333.13 K, 3608 kPa | 1257.2 kg/m3
333.13 K, 3641 kPa | 1257.6 kg/m3
333.13 K, 3670 kPa | 1258.2 kg/m3
333.13 K, 3699 kPa | 1258.5 kg/m3
333.13 K, 3726 kPa | 1258.9 kg/m3
333.13 K, 3767 kPa | 1259.4 kg/m3
333.13 K, 3793 kPa | 1259.7 kg/m3
333.13 K, 3826 kPa | 1260.3 kg/m3
333.13 K, 3860 kPa | 1260.8 kg/m3
333.13 K, 3894 kPa | 1261.2 kg/m3
333.13 K, 3924 kPa | 1261.5 kg/m3
333.13 K, 3950 kPa | 1261.9 kg/m3
333.13 K, 3984 kPa | 1262.2 kg/m3
333.13 K, 4010 kPa | 1262.9 kg/m3
333.13 K, 4041 kPa | 1263.1 kg/m3
333.13 K, 4072 kPa | 1263.5 kg/m3
333.13 K, 4105 kPa | 1264 kg/m3
333.13 K, 4143 kPa | 1264.4 kg/m3

Source: the NIST ThermoML archive (doi:10.1021/je700260f)
